Like-named read-outs stand apart in the source and are kept apart here.
Key:
[1] = tested on: HCV genotype 1a (H77 strain) replicon in HUH-7 cells; assay: HCV replicon luciferase reporter assay, genotype 1a; assay type: cell-based; details: Hepatitis C virus, Huh-7, 72 h, 3 days incubation, read-out: LE_1a (EC50, range)
Outline: (§1)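 Replicon inhibition for both genotypes was measured as Renilla luciferase signal (EnduRen, 7.5 μM final, 2 h) after 3-day, 37° C exposure of replicon-bearing HUH-7 cells in 4% FCS DMEM, 0.5% DMSO. The 1b construct carries S1179I; the 1a H77 construct carries P1496L and S2204I. Twenty-point, 3-fold dilutions were fitted four-parametrically for EC50, and CC50 was taken from multiplexed Cell Titer-Blue.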

[2] = tested on: HCV genotype 1b (Con1) replicon in HUH-7 cells; assay: HCV replicon luciferase reporter assay, genotype 1b; assay type: cell-based; details: Hepatitis C virus, Huh-7, 72 h, 3 days incubation, read-out: LE_1b (EC50, range)
Outline: as §1

[3] = HCV genotype 1a replicon luciferase
[4] = HCV genotype 1b replicon luciferase
[5] = HCV genotype 1a replicon luciferase assay, range class
[6] = HCV genotype 1b replicon luciferase assay, range class

CCOc1nnc(O[C@@H]2C[C@H]3C(=O)N[C@]4(C(=O)NS(=O)(=O)C5CC5)C[C@H]4/C=C\CC[C@@H](C)C[C@@H](CC)[C@H](NC(=O)OC(C)(C)C(F)(F)F)C(=O)N3C2)c2ccccc12 [Compound 5045, 1,1,1-trifluoro-2-methylpropan-2-yl((2R,6S,7R,9R,13aS,14aR,16aS,Z)-14a-((cyclopropylsulfonyl)carbamoyl)-2-((4-ethoxyphthalazin-1-yl)oxy)-7-ethyl-9-methyl-5,16-dioxo-1,2,3,5,6,7,8,9,10,11,13a,14,14a,15,16,16a-hexadecahydrocyclopropa[e]pyrrolo[1,2-a][1,4]diazacyclopentadecin-6-yl)carbamate]
EC50 [1, 3]: < 5.46 nM | EC50 [2, 4]: < 5.46 nM

COc1ccc2c(O[C@@H]3C[C@H]4C(=O)N[C@]5(C(=O)NS(=O)(=O)C6(Cl)CC6)C[C@H]5/C=C\CC[C@@H](C)C[C@@H](C)[C@H](NC(=O)OC(C)(C)C)C(=O)N4C3)ncc(OC)c2c1 [Compound 4125, tert-butyl (2R,6S,7R,9R,13aS,14aR,16aS,Z)-14a-(1-chlorocyclopropylsulfonylcarbamoyl)-2-(4,6-dimethoxyisoquinolin-1-yloxy)-7,9-dimethyl-5,16-dioxo-1,2,3,5,6,7,8,9,10,11,13a,14,14a,15,16,16a-hexadecahydrocyclopropa[e]pyrrolo[1,2-a][1,4]diazacyclopentadecin-6-ylcarbamate]
EC50 [1, 3]: < 5.46 nM | EC50 [2, 4]: < 5.46 nM

CC(C)Oc1cc2c(Cl)cccc2c(O[C@@H]2C[C@H]3C(=O)N[C@]4(C(=O)NS(=O)(=O)C5CC5)C[C@H]4/C=C\CC[C@H](C)C[C@@H](C)[C@H](NC(=O)OC(C)(C)C)C(=O)N3C2)n1 [Compound 1091, tert-butyl ((2R,6S,7R,9S,13aS,14aR,16aS,Z)-2-((5-chloro-3-isopropoxyisoquinolin-1-yl)oxy)-14a-((cyclopropylsulfonyl)carbamoyl)-7,9-dimethyl-5,16-dioxo-1,2,3,5,6,7,8,9,10,11,13a,14,14a,15,16,16a-hexadecahydrocyclopropa[e]pyrrolo[1,2-a][1,4]diazacyclopentadecin-6-yl)carbamate]
EC50 [1, 5]: 4.82 to 103 nM | EC50 [2, 6]: < 5.46 nM

COc1ccc2c(O[C@@H]3C[C@H]4C(=O)N[C@]5(C(=O)NS(=O)(=O)C6(C)CC6)C[C@H]5/C=C\CC[C@@H](C)C[C@@H](C)[C@H](NC(=O)O[C@H](C)C(F)(F)F)C(=O)N4C3)nc(N3CCOCC3)cc2c1 [Compound 3093, (R)-1,1,1-trifluoropropan-2-yl ((2R,6S,7R,9R,13aS,14aR,16aS,Z)-2-((6-methoxy-3-morpholinoisoquinolin-1-yl)oxy)-7,9-dimethyl-14a-(((1-methylcyclopropyl)sulfonyl)carbamoyl)-5,16-dioxo-1,2,3,5,6,7,8,9,10,11,13a,14,14a,15,16,16a-hexadecahydrocyclopropa[e]pyrrolo[1,2-a][1,4]diazacyclopentadecin-6-yl)carbamate]
EC50 [1, 5]: < 5.46 nM | EC50 [2, 6]: < 5.46 nM

[2H]C([2H])([2H])C(C)(OC(=O)N[C@@H]1C(=O)N2C[C@H](Oc3nccc4c5c(ccc34)N(C)CCO5)C[C@H]2C(=O)N[C@]2(C(=O)NS(=O)(=O)C3CC3)C[C@H]2/C=C\CC[C@H](C)C[C@H]1C)C([2H])([2H])[2H] [Compound 5285, 1,1,1,3,3,3-hexadeutero-2-methylpropan-2-yl((2R,6S,7R,9S,13aS,14aR,16aS,Z)-14a-((cyclopropylsulfonyl)carbamoyl)-7,9-dimethyl-2-((4-methyl-3,4-dihydro-2H-[1,4]oxazino[2,3-f]isoquinolin-7-yl)oxy)-5,16-dioxo-1,2,3,5,6,7,8,9,10,11,13a,14,14a,15,16,16a-hexadecahydrocyclopropa[e]pyrrolo[1,2-a][1,4]diazacyclopentadecin-6-yl)carbamate]
EC50 [1, 3]: 4.82 to 103 nM | EC50 [2, 4]: < 5.46 nM

C[C@H]1CC/C=C\[C@@H]2C[C@@]2(C(=O)NS(=O)(=O)C2(C)CC2)NC(=O)[C@@H]2C[C@@H](Oc3nccc4c5c(ccc34)N(C)CCO5)CN2C(=O)[C@@H](NC(=O)O[C@@H]2C[C@@H]3C[C@@H]3C2)[C@H](C)C1 [Compound 5299, (1R,3r,5S)-bicyclo[3.1.0]hexan-3-yl((2R,6S,7R,9S,13aS,14aR,16aS,Z)-7,9-dimethyl-2-((4-methyl-3,4-dihydro-2H-[1,4]oxazino[2,3-f]isoquinolin-7-yl)oxy)-14a-(((1-methylcyclopropyl)sulfonyl)carbamoyl)-5,16-dioxo-1,2,3,5,6,7,8,9,10,11,13a,14,14a,15,16,16a-hexadecahydrocyclopropa[e]pyrrolo[1,2-a][1,4]diazacyclopentadecin-6-yl)carbamate]
EC50 [1, 3]: < 5.46 nM | EC50 [2, 4]: < 5.46 nM

COc1cnc(O[C@@H]2C[C@H]3C(=O)N[C@]4(C(=O)NS(=O)(=O)C5(Cl)CC5)C[C@H]4/C=C\CC[C@@H](C)C[C@@H](C)[C@H](NC(=O)OC(C)(C)C(F)(F)F)C(=O)N3C2)c2ccccc12 [Compound 4153]
EC50 ([1]; GETYPE1A, HCV genotype 1a replicon luciferase): < 5.46 nM | EC50 ([2]; GETYPE1B, HCV genotype 1b replicon luciferase): < 5.46 nM

COc1ccc2c(O[C@@H]3C[C@H]4C(=O)N[C@]5(C(=O)NS(=O)(=O)C6(C)CC6)C[C@H]5/C=C\CC[C@H](C)C[C@@H](C)[C@H](NC(=O)O[C@H](C)C(F)(F)F)C(=O)N4C3)nc(-c3ccc(OC(C)C)c(F)c3)cc2c1 [Compound 3075, (R)-1,1,1-trifluoropropan-2-yl ((2R,6S,7R,9S,13aS,14aR,16aS,Z)-2-((3-(3-fluoro-4-isopropoxyphenyl)-6-methoxyisoquinolin-1-yl)oxy)-7,9-dimethyl-14a-(((1-methylcyclopropyl)sulfonyl)carbamoyl)-5,16-dioxo-1,2,3,5,6,7,8,9,10,11,13a,14,14a,15,16,16a-hexadecahydrocyclopropa[e]pyrrolo[1,2-a][1,4]diazacyclopentadecin-6-yl)carbamate]
EC50 [1, 5]: 4.82 to 103 nM | EC50 [2, 6]: < 5.46 nM

C[C@@H]1CC/C=C\[C@@H]2C[C@@]2(C(=O)NS(=O)(=O)C2CC2)NC(=O)[C@@H]2C[C@@H](Oc3nccc4c5c(ccc34)N(C)CCO5)CN2C(=O)[C@@H](NC(=O)OC(C)(C)C)[C@H](C)C1 [Compound 5276, tert-butyl ((2R,6S,7R,9R,13aS,14aR,16aS,Z)-14a-((cyclopropylsulfonyl)carbamoyl)-7,9-dimethyl-2-((4-methyl-3,4-dihydro-2H-[1,4]oxazino[2,3-f]isoquinolin-7-yl)oxy)-5,16-dioxo-1,2,3,5,6,7,8,9,10,11,13a,14,14a,15,16,16a-hexadecahydrocyclopropa[e]pyrrolo[1,2-a][1,4]diazacyclopentadecin-6-yl)carbamate]
EC50 [1, 3]: < 5.46 nM | EC50 [2, 4]: < 5.46 nM

COc1ccc2c(O[C@@H]3C[C@H]4C(=O)N[C@]5(C(=O)NS(=O)(=O)C6(C)CC6)C[C@H]5/C=C\CC[C@H](C)C[C@@H](C)[C@H](NC(=O)c5ccc(N(C)C)cc5)C(=O)N4C3)nccc2c1 [Compound 5180, (2R,6S,7R,9S,13aS,14aR,16aS,Z)-6-(4-(dimethylamino)benzamido)-2-((6-methoxyisoquinolin-1-yl)oxy)-7,9-dimethyl-N-((1-methylcyclopropyl)sulfonyl)-5,16-dioxo-1,2,3,5,6,7,8,9,10,11,13a,14,14a,15,16,16a-hexadecahydrocyclopropa[e]pyrrolo[1,2-a][1,4]diazacyclopentadecine-14a-carboxamide]
EC50 [1, 3]: < 5.46 nM | EC50 [2, 4]: < 5.46 nM
